# According to patent US8859571B2, “Quinazoline compounds” (GlaxoSmithKline LLC, priority 2009, dated 2014):
# Target: T1, Full length human TNNI3K (hTNNI3K) (Homo sapiens, UniProt Q59H18)
# T1 construct: His-MBP-TEV-Full length human TNNI3K (hTNNI3K); His (N); MBP (N); TEV cleavage site (N); made in house; host or cells: baculovirus system (printed 'Baculokinase system')
# T1 sequence (Q59H18 1-835): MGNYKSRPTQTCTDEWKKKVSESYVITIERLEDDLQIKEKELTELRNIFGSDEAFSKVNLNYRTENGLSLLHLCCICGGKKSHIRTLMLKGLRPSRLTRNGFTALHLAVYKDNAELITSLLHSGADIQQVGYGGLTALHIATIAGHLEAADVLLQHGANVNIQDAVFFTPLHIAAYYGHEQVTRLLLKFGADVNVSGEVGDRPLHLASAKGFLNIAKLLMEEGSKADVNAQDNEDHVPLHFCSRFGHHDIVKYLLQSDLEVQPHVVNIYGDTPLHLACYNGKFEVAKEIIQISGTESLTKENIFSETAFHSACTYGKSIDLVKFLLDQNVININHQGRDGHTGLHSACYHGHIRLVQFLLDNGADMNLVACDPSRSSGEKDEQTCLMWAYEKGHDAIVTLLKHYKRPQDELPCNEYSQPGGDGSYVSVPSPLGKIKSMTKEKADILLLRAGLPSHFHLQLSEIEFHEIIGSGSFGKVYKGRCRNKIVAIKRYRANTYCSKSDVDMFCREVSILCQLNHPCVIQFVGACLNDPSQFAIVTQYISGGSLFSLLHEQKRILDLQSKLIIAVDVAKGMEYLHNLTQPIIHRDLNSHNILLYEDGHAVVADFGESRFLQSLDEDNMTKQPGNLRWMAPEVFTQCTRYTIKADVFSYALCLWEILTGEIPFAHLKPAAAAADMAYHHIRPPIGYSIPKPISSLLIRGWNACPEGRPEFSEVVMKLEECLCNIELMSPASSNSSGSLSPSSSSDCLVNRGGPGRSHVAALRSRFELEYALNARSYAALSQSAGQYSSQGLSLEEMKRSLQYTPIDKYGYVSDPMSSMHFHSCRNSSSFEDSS
# Assay: Fluorescent polarization assay of compound inhibition on hTNNI3K ATP binding (Biological Assay Method I)
# Conditions: displacement of fluorescent ligand from hTNNI3K ATP binding pocket; mean of a minimum of 2 experiments; read-out: pXC50 (the source's name) (converted)
row,IC50 [µM],Structure (SMILES)
1,0.01 to 0.1,"CNc1ccc2ncnc(Nc3cc(S(=O)(=O)NC)ccc3N(C)C)c2c1 [Example 87, 4-(dimethylamino)-N-methyl-3-((6-(methylamino)quinazolin-4-yl)amino)benzenesulfonamide bis(trifluoroacetate)]"
2,0.01 to 0.1,"CNc1ccc2c(Nc3cc(S(=O)(=O)NC)ccc3N(C)C)ncnc2c1 [Example 88, 4-(dimethylamino)-N-methyl-3-((7-(methylamino)quinazolin-4-yl)amino) benzenesulfonamide]"
